Measured values as given in patent publication US11498899B2, “Nitrone herbicides” (FMC Corporation, priority 2016, dated 2022).

Experiments:
[1] = tested on: barnyardgrass (Echinochloa crus-galli); experiment: Test A preemergence, visual injury rating 0-100 (0 no effect, 100 complete control); assay type: in vivo
[2] = tested on: foxtail, giant (giant foxtail, Setaria faberii); experiment: Test A preemergence, visual injury rating 0-100; assay type: in vivo
[3] = tested on: kochia (Kochia scoparia); experiment: Test A preemergence, visual injury rating 0-100; assay type: in vivo
[4] = tested on: pigweed (Amaranthus retroflexus); experiment: Test A preemergence, visual injury rating 0-100; assay type: in vivo
[5] = tested on: ragweed (common ragweed, Ambrosia elatior); experiment: Test A preemergence, visual injury rating 0-100; assay type: in vivo
[6] = tested on: ryegrass, Italian (Italian ryegrass, Lolium multiflorum); experiment: Test A preemergence, visual injury rating 0-100; assay type: in vivo
[7] = tested on: barnyardgrass (Echinochloa crus-galli); experiment: Test A postemergence, visual injury rating 0-100; assay type: in vivo; conditions: 0 to 100 scale
[8] = tested on: blackgrass (Alopecurus myosuroides); experiment: Test A postemergence, visual injury rating 0-100; assay type: in vivo; conditions: 0 to 100 scale
[9] = tested on: corn (Zea mays); experiment: Test A postemergence, visual injury rating 0-100; assay type: in vivo; conditions: 0 to 100 scale
[10] = tested on: foxtail, giant (giant foxtail, Setaria faberii); experiment: Test A postemergence, visual injury rating 0-100; assay type: in vivo; conditions: 0 to 100 scale
[11] = tested on: galium (catchweed bedstraw, Galium aparine); experiment: Test A postemergence, visual injury rating 0-100; assay type: in vivo; conditions: 0 to 100 scale
[12] = tested on: kochia (Kochia scoparia); experiment: Test A postemergence, visual injury rating 0-100; assay type: in vivo; conditions: 0 to 100 scale
[13] = tested on: pigweed (Amaranthus retroflexus); experiment: Test A postemergence, visual injury rating 0-100; assay type: in vivo; conditions: 0 to 100 scale
[14] = tested on: ragweed (common ragweed, Ambrosia elatior); experiment: Test A postemergence, visual injury rating 0-100; assay type: in vivo; conditions: 0 to 100 scale
[15] = tested on: ryegrass, Italian (Italian ryegrass, Lolium multiflorum); experiment: Test A postemergence, visual injury rating 0-100; assay type: in vivo; conditions: 0 to 100 scale
[16] = tested on: wheat (Triticum aestivum); experiment: Test A postemergence, visual injury rating 0-100; assay type: in vivo; conditions: 0 to 100 scale
[17] = tested on: ducksalad (Heteranthera limosa); experiment: Test B flooded paddy test, visual rating 0-100; conditions: Flood, 250 g ai/ha, applied to paddy water, rated after 13 to 15 days
[18] = tested on: barnyardgrass (Echinochloa crus-galli); experiment: Test B flooded paddy test, visual rating 0-100; conditions: Flood, 250 g ai/ha, applied to paddy water, rated after 13 to 15 days
[19] = tested on: rice (Oryza sativa); experiment: Test B flooded paddy test, visual rating 0-100 (0 no effect, 100 complete control); conditions: Flood, 250 g ai/ha, applied to paddy water, rated after 13 to 15 days

Row | Structure (SMILES) | Barnyardgrass plant response rating (0 to 100 scale) ([1]; 125 g ai/ha) | Barnyardgrass plant response rating (0 to 100 scale) ([1]; 500 g ai/ha) | Foxtail, Giant plant response rating (0 to 100 scale) ([2]; 125 g ai/ha) | Foxtail, Giant plant response rating (0 to 100 scale) ([2]; 500 g ai/ha) | Kochia plant response rating (0 to 100 scale) ([3]; 125 g ai/ha) | Kochia plant response rating (0 to 100 scale) ([3]; 500 g ai/ha) | Pigweed plant response rating (0 to 100 scale) ([4]; 125 g ai/ha) | Pigweed plant response rating (0 to 100 scale) ([4]; 500 g ai/ha) | Ragweed plant response rating (0 to 100 scale) ([5]; 125 g ai/ha) | Ragweed plant response rating (0 to 100 scale) ([5]; 500 g ai/ha) | Ryegrass, Italian plant response rating (0 to 100 scale) ([6]; 500 g ai/ha) | Barnyardgrass plant response rating ([7]; 125 g ai/ha) | Barnyardgrass plant response rating ([7]; 500 g ai/ha) | Blackgrass plant response rating ([8]; 125 g ai/ha) | Blackgrass plant response rating ([8]; 500 g ai/ha) | Corn plant response rating ([9]; 125 g ai/ha) | Corn plant response rating ([9]; 500 g ai/ha) | Foxtail, Giant plant response rating ([10]; 125 g ai/ha) | Foxtail, Giant plant response rating ([10]; 500 g ai/ha) | Galium plant response rating ([11]; 125 g ai/ha) | also measured
1 | CC1=[N+]([O-])C(C(=O)Nc2cccc(F)c2F)C(c2cc(F)c(F)c(Oc3ncc(F)cn3)c2)C1 (racemic) [Compound 85] | 80 | 100 | 80 | 100 | 0 | 10 | 50 | 0 | 0 | 0 | 90 | 40 | 80 | 60 | 80 | 60 | 90 | 60 | 80 | 20 | Ryegrass, Italian plant response rating (0 to 100 scale) ([6]; 125 g ai/ha): 60; Galium plant response rating ([11]; 500 g ai/ha): 30; Kochia plant response rating ([12]; 125 g ai/ha): 0; Kochia plant response rating ([12]; 500 g ai/ha): 0; Pigweed plant response rating ([13]; 125 g ai/ha): 0; Pigweed plant response rating ([13]; 500 g ai/ha): 0; Ragweed plant response rating ([14]; 125 g ai/ha): 0; Ragweed plant response rating ([14]; 500 g ai/ha): 0; Ryegrass, Italian plant response rating ([15]; 125 g ai/ha): 0; Ryegrass, Italian plant response rating ([15]; 500 g ai/ha): 60; Wheat plant response rating ([16]; 125 g ai/ha): 50; Wheat plant response rating ([16]; 500 g ai/ha): 90; Ducksalad plant response rating (0 to 100 scale) [17]: 0; Barnyardgrass plant response rating (0 to 100 scale) [18]: 0; Rice plant response rating (0 to 100 scale) [19]: 0
2 | CC1=[N+]([O-])C(C(=O)Nc2cccc(F)c2F)C(c2ccc(C)c(Br)c2)C1 (racemic) [Compound 71] | 90 | 90 | 80 | 90 | 10 | 80 | 0 | 40 | 0 | 60 | 90 | 80 | 90 | 40 | 70 | 70 | 90 | 40 | 60 | 30 | Ryegrass, Italian plant response rating (0 to 100 scale) ([6]; 125 g ai/ha): 30; Galium plant response rating ([11]; 500 g ai/ha): 50; Kochia plant response rating ([12]; 125 g ai/ha): 10; Kochia plant response rating ([12]; 500 g ai/ha): 50; Pigweed plant response rating ([13]; 125 g ai/ha): 20; Pigweed plant response rating ([13]; 500 g ai/ha): 10; Ragweed plant response rating ([14]; 125 g ai/ha): 0; Ragweed plant response rating ([14]; 500 g ai/ha): 50; Ryegrass, Italian plant response rating ([15]; 125 g ai/ha): 60; Ryegrass, Italian plant response rating ([15]; 500 g ai/ha): 80; Wheat plant response rating ([16]; 125 g ai/ha): 20; Wheat plant response rating ([16]; 500 g ai/ha): 70; Ducksalad plant response rating (0 to 100 scale) [17]: 0; Barnyardgrass plant response rating (0 to 100 scale) [18]: 0; Rice plant response rating (0 to 100 scale) [19]: 0
3 | CC1=[N+]([O-])[C@@H](C(=O)Nc2cccc(F)c2F)[C@H](c2cccc(Oc3ccc(F)cn3)c2)C1 [Compound 84] | 10 | 90 | 30 | 90 | 0 | 50 | 0 | 30 | 0 | 20 | 80 | 40 | 90 | 90 | 90 | 0 | 40 | 50 | 70 | 40 | Ryegrass, Italian plant response rating (0 to 100 scale) ([6]; 125 g ai/ha): 0; Galium plant response rating ([11]; 500 g ai/ha): 40; Kochia plant response rating ([12]; 125 g ai/ha): 0; Kochia plant response rating ([12]; 500 g ai/ha): 20; Pigweed plant response rating ([13]; 125 g ai/ha): 10; Pigweed plant response rating ([13]; 500 g ai/ha): 40; Ragweed plant response rating ([14]; 125 g ai/ha): 0; Ragweed plant response rating ([14]; 500 g ai/ha): 30; Ryegrass, Italian plant response rating ([15]; 125 g ai/ha): 20; Ryegrass, Italian plant response rating ([15]; 500 g ai/ha): 90; Wheat plant response rating ([16]; 125 g ai/ha): 0; Wheat plant response rating ([16]; 500 g ai/ha): 50; Ducksalad plant response rating (0 to 100 scale) [17]: 0; Barnyardgrass plant response rating (0 to 100 scale) [18]: 0; Rice plant response rating (0 to 100 scale) [19]: 0
4 | CC1=[N+]([O-])C(C(=O)Nc2cccc(F)c2F)C(c2cccc(Oc3ncc(Cl)cn3)c2)C1 (racemic) [Compound 115] | 90 | 90 | 20 | 90 | 0 | 30 | 0 | 0 | 0 | 20 | 80 | 0 | 60 | 40 | 80 | 0 | 60 | 0 | 70 | 40 | Galium plant response rating ([11]; 500 g ai/ha): 70; Kochia plant response rating ([12]; 125 g ai/ha): 0; Kochia plant response rating ([12]; 500 g ai/ha): 20; Pigweed plant response rating ([13]; 125 g ai/ha): 0; Pigweed plant response rating ([13]; 500 g ai/ha): 20; Ragweed plant response rating ([14]; 125 g ai/ha): 0; Ragweed plant response rating ([14]; 500 g ai/ha): 20; Ryegrass, Italian plant response rating ([15]; 125 g ai/ha): 0; Ryegrass, Italian plant response rating ([15]; 500 g ai/ha): 60; Wheat plant response rating ([16]; 125 g ai/ha): 10; Wheat plant response rating ([16]; 500 g ai/ha): 50; Ducksalad plant response rating (0 to 100 scale) [17]: 0; Barnyardgrass plant response rating (0 to 100 scale) [18]: 0; Rice plant response rating (0 to 100 scale) [19]: 0
